From patent US20250101013A1, “FUNCTIONALIZED AMINOTHIAZOLES” (LEADXPRO AG, priority 2022, published 2025)
pEC50: −log10 of the molar value.

Columns and labels:
Settings in all cases: *Measured by radioligand binding
human A1 receptor = human A1 receptor (Homo sapiens (Human), UniProt P30542); assay: Radioligand binding assay, A1 ([3H]-DPCPX, CHO-K1 membranes)
Method: (§1) A filtration binding assay was performed for adenosine receptors A1, A2A, A2B and A3. Radioligand binding competition assay was done in duplicate in the wells of a 96-well plate (Master Block, Greiner, 786201) containing binding buffer, receptor membrane extracts, a fixed concentration of tracer, and test compound at increasing concentrations. In order to eliminate effect of buffer components, binding buffer was the same for all four receptors and contained: 50 mM Tris-HCl pH 7.4, 5 mM MgCl, 1 mM EDTA, 150 mM NaCl, 0.1% Na-azide, and 5 U/ml adenosine-deaminase. Nonspecific binding was minimized by co-incubation with 200-fold excess of cold competitor. In all radioligand binding experiments, the samples were incubated in a final volume of 0.1 ml of binding buffer for 60 minutes at 25° C. and then filtered over Unifilter plates (Perkin Elmer) pre-treated for 2 hours to limit tracer non-specific binding. Filters were washed five times with 0.5 ml of ice-cold washing buffer (50 mM Tris-HCl pH 7.4, 5 mM MgCl, 1 mM EDTA), and 50 μL of Microscint 20 (Perkin Elmer) were added to each filter. The plates were incubated 15 min at room temperature on an orbital shaker and then counted with a TopCount™ for 1 min/well.
For A1 receptor, the assay was performed with [3H]-DPCPX and membranes from CHO-Kl cells transfected with human A1 receptor (Euroscreen FAST-001B).

human A2A receptor = human A2A receptor (Homo sapiens (Human), UniProt P29274); assay: Radioligand binding assay, A2A ([3H]-NECA, HEK293 membranes)
Method: as §1
For A2A receptor, the assay was performed with [3H-NECA and membranes from HEK293 cells transfected with human A2A receptor (Euroscreen FAST-002B).

human A3 receptor = human A3 receptor (Homo sapiens (Human), UniProt P0DMS8); assay: Radioligand binding assay, A3 ([125I]-MECA, CHO-K1 membranes)
Method: as §1
For A3 receptor, the assay was carried out with [125IJ-MECA and membranes from CHO-Kl cells transfected with human A3 receptor (Euroscreen FAST-004B).

human A2B receptor = human A2B receptor (Homo sapiens (Human), UniProt P29275); assay: Radioligand binding assay, A2B ([3H]-DPCPX, HEK293 membranes)
Method: as §1
For A2B receptor, the assay was carried with [3H]-DPCPX and membranes prepared from HEK293 cells transfected with human A2B receptor (Euroscreen FAST-003B).

Sequence of human A3 receptor (P0DMS8 whole entry): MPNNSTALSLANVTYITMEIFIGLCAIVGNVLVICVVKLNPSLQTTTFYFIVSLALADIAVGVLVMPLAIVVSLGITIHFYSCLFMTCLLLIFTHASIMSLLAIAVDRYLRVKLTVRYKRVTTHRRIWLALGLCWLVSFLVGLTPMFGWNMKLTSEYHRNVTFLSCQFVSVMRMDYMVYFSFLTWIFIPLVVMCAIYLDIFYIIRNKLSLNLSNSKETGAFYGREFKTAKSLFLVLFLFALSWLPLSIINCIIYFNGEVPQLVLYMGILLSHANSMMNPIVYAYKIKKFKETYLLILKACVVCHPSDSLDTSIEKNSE
Sequence of human A2B receptor (P29275 whole entry): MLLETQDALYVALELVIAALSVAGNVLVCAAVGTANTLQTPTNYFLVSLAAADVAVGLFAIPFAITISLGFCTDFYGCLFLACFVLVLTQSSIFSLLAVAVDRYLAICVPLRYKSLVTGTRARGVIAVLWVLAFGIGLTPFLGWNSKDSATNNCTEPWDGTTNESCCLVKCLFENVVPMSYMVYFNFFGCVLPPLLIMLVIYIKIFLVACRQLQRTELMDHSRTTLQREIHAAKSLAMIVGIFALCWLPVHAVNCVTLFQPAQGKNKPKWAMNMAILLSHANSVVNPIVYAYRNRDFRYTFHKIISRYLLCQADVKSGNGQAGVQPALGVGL
Sequence of human A1 receptor (P30542 whole entry): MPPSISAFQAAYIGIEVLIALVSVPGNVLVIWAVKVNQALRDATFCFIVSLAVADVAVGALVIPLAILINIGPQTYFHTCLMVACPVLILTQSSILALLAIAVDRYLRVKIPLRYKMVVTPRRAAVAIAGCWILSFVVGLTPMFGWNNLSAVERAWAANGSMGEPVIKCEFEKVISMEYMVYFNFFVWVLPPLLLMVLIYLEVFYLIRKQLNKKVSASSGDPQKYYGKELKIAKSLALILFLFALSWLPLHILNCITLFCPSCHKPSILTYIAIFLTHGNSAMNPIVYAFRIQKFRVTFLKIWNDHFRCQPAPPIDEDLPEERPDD
Sequence of human A2A receptor (P29274 whole entry): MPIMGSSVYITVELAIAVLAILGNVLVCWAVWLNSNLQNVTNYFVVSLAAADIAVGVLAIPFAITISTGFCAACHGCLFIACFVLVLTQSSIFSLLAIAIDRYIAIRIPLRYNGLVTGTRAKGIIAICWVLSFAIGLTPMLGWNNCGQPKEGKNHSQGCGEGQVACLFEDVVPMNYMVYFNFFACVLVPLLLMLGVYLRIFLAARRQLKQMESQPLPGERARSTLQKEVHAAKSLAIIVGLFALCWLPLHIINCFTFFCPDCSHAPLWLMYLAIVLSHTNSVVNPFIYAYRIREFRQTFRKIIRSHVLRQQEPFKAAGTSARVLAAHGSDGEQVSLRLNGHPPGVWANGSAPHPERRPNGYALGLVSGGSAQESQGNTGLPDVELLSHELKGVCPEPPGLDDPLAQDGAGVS

pEC50 (human A1 receptor): > 8.30 | pEC50 (human A2A receptor): < 5.00 | pEC50 (human A3 receptor): < 5.00 | pEC50 (human A2B receptor): 8.66
SMILES: Fc1ccccc1-c1nc(Nc2n[nH]c(C3CCC3)n2)sc1-c1ccncc1F [Compound 1, 5-Cyclobutyl-N-[4-(2-fluorophenyl)-5-(3-fluoropyridin-4-yl)-1,3-thiazol-2-yl]-1H-1,2,4-triazol-3-amine]
